According to the NIST ThermoML archive (doi:10.1021/je900468u):
Where “and” joins values, the source holds several entries; their conditions need not be identical. Equal entries are not always repeated.

Assays:
[1] = 101 kPa, Liquid; for speed of sound: Pulse-echo method
[2] = refractive index (Na D-line) (dimensionless); settings: 101.33 kPa, Liquid, Standard Abbe refractometry
[3] = xn = mol fraction of the nth substance listed; settings: 101 kPa, Liquid; for speed of sound: Pulse-echo method
[4] = refractive index (Na D-line) (dimensionless); xn = mol fraction of the nth substance listed; settings: 101 kPa, Liquid, Standard Abbe refractometry

CCc1ccccc1 [ethylbenzene]
Settings	mass density, [1] [kg/m3]	refractive index, [2]	speed of sound, [1] [m/s]
283.15 K	875.7	1.50129	1382
298.15 K	862.5	1.49304	1319

C1CCCCCCC1 [cyclooctane]
298.15 K
Settings	mass density [kg/m3]	refractive index	speed of sound [m/s]
[1]	831.5	–	1391
[2]	–	1.45598	–

C1CCCCC1 [cyclohexane]
Settings	mass density, [1] [kg/m3]	refractive index, [2]	speed of sound, [1] [m/s]
283.15 K	787.8	1.43193	1329
298.15 K	773.9	1.4236	1255

C1CCCCC1 [cyclohexane] + Cc1ccccc1
Settings	mass density, [3] [kg/m3]	refractive index, [4]	speed of sound, [3] [m/s]
283.15 K, x1 = 0.0484	871	1.4988	1365
283.15 K, x1 = 0.099	865.8	1.49476	1360
283.15 K, x1 = 0.1997	855.8	1.48684	1351
283.15 K, x1 = 0.2973	846.1	1.47919	1344
283.15 K, x1 = 0.3975	836.6	1.47167	1337
283.15 K, x1 = 0.4999	827.3	1.46416	1331
283.15 K, x1 = 0.5881	819.6	1.45803	1328
283.15 K, x1 = 0.699	810.3	1.45054	1325
283.15 K, x1 = 0.7985	802.4	1.44407	1324
283.15 K, x1 = 0.8961	795.1	1.43794	1325
283.15 K, x1 = 0.9497	791.3	1.43489	1327
283.15 K, x1 = 1	–	–	1329
298.15 K, x1 = 0.0484	857.2	1.49021	1300
298.15 K, x1 = 0.099	852	1.48614	1294
298.15 K, x1 = 0.1997	842	1.47829	1285
298.15 K, x1 = 0.2973	832.3	1.47073	1276
298.15 K, x1 = 0.3975	822.8	1.4632	1269
298.15 K, x1 = 0.4999	813.4	1.4558	1263
298.15 K, x1 = 0.5881	805.7	1.44964	1258
298.15 K, x1 = 0.699	796.4	1.44216	1254
298.15 K, x1 = 0.7985	788.4	1.4358	1252
298.15 K, x1 = 0.8961	781.1	1.42971	1252
298.15 K, x1 = 0.9497	777.4	1.42663	1253
298.15 K, x1 = 1	773.9	1.4236	1255

CC1CCCCC1 [methylcyclohexane]
Settings	mass density, [1] [kg/m3]	refractive index, [2]	speed of sound, [1] [m/s]
283.15 K	777.9	1.42833	1281
298.15 K	765.1	1.42062	1215

c1ccccc1 [benzene]
Settings	mass density, [1]	refractive index, [2]	speed of sound, [1] [m/s]
283.15 K	889.5 kg/m3	1.50765	1371
298.15 K	873.9 kg/m3 and 873.6 kg/m3	1.49774	1299

CC1CCCCC1 [methylcyclohexane] + c1ccccc1
Settings	mass density, [3] [kg/m3]	refractive index, [4]	speed of sound, [3] [m/s]
283.15 K, x1 = 0.0504	880.6	1.50135	1359
283.15 K, x1 = 0.099	872.4	1.49548	1350
283.15 K, x1 = 0.1998	856.9	1.48438	1333
283.15 K, x1 = 0.2978	843.4	1.47501	1320
283.15 K, x1 = 0.3991	830.7	1.46578	1308
283.15 K, x1 = 0.4993	819.5	1.45783	1299
283.15 K, x1 = 0.598	809.6	1.45078	1293
283.15 K, x1 = 0.6991	800.5	1.44435	1288
283.15 K, x1 = 0.7981	792.4	1.43862	1284
283.15 K, x1 = 0.8961	784.9	1.4333	1282
283.15 K, x1 = 0.9523	781	1.43058	1282
283.15 K, x1 = 1	777.9	1.42833	1281
298.15 K, x1 = 0.0504	865	1.49162	1289
298.15 K, x1 = 0.099	857.1	1.48594	1280
298.15 K, x1 = 0.1998	841.9	1.47509	1263
298.15 K, x1 = 0.2978	828.8	1.46597	1250
298.15 K, x1 = 0.3991	816.5	1.45706	1240
298.15 K, x1 = 0.4993	805.7	1.44934	1231
298.15 K, x1 = 0.598	796	1.44247	1225
298.15 K, x1 = 0.6991	787.2	1.43623	1220
298.15 K, x1 = 0.7981	779.3	1.43061	1217
298.15 K, x1 = 0.8961	772	1.42549	1216
298.15 K, x1 = 0.9523	768.2	1.42279	1215
298.15 K, x1 = 1	765.1	1.42062	1215
